Earlier results on two compounds are cited in patent publication US7495029B2, “Prodrugs of (2R)-2-propyloctanoic acid for the treatment of stroke” (Merck & Co., Inc, priority 2004, dated 2009).

For data set [1], the system named is mice. The settings on record: Tunctan et al, Pharmacological Res 2003.
The test system of data set [2] is gerbils subjected to a transient global ischemia event. The settings on record: Jalil et al, Brain Research 2002.
Data set [3] deals with lipid peroxidation. The settings on record: in vitro; Kogure et al, Life Sciences 2002.
Data set [4] has as its system vascular endothelial cell. The conditions noted are these: in vitro; Kogure et al, Life Sciences 2002.
For data set [5], the system named is rat stroke models. The settings on record: Kogure et al, Life Sciences 2002.

As to `CC1(C)OC(=O)C(c2cccc(F)c2)=C1c1ccc(S(C)(=O)=O)cc1` [DFU], the endotoxin-induced mortality result in data set [1] is “dose dependently reduce endotoxin-induced mortality”. Moreover, in data set [2], the “neuroprotection against hippocampal damage” value was “neuroprotective against hippocampal damage”.
On to Edaravone, for which, in data set [3], the lipid peroxidation result is “inhibit lipid peroxidation”. Besides, the “vascular endothelial cell damage” value in data set [4] is reported as “inhibit”. Moreover, the “development of cerebral edema, cerebral infarction, neurological symptoms and delayed neuronal death” value in data set [5] is “inhibit the development of cerebral edema, cerebral infarction, neurological symptoms and delayed neuronal death”.
